Results reported in US4562211A, “Pharmaceutically active 2-substituted-1-(omega-aminoalkoxy)benzenes” (Mitsubishi Chemical Industries, Ltd., priority 1976, dated 1985).
Where a name gives a salt, the structure may show the parent alone.

How the values were obtained:
[1] = Acute toxicity in mice, LD50 (Litchfield-Wilcoxon); settings: mouse, in vivo, ip
Description: The compounds have been tested in mice for antidepressant, sedative, anticonvulsant and anticholinergic activity. The compounds were administered intraperitoneally and the activities of the compounds were compared with those of Amitriptyline.
LD50 was calculated by Litchfield-Wilcoxon method.

[2] = test system: electroshock induced tonic extensor; assay: Anticonvulsant activity: antagonism of electroshock induced tonic extensor; assay type: in vivo; settings: Mus musculus, po; mice; p.o.; dose preventing 50% of response; read-out: Anti-Convulsant Activity ED50
[3] = test system: neurological deficit as measured by traction test; assay: CNS depressant activity: muscle relaxant action, traction test; assay type: in vivo; settings: Mus musculus, po, mice
[4] = test system: spontaneous motor activity; assay: CNS depressant activity: spontaneous motor activity depression (ANIMEX apparatus); assay type: in vivo; settings: Mus musculus, po, mice
tremorine induced tremor = assay: Central anticholinergic effect: antitremorine effect; assay type: in vivo; settings: Mus musculus, po, mice
[5] = test system: reserpine (5 mg/kg i.p.) induced hypothermia; assay: Antireserpine activity in mice (antagonism of reserpine induced hypothermia), relative to Amitriptyline; assay type: in vivo; settings: Amitriptyline=1
Description: The 2-substituted-1-(omega-aminoalkoxy)benzenes and the acid addition salts thereof may be purified by recrystallization employing a suitable solvent such as alcohol-ether.
The compounds were administered intraperitoneally and the activities of the compounds were compared with those of Amitriptyline.

Compound `CN(C)CCC=C1c2ccccc2CCc2ccccc21` [Amitriptyline, reference compound] has an LD50 [1] of 300 mg/kg, an ED50 [2] of 19 mg/kg and an ED50 [3] of 40 mg/kg. For the same compound, the ED50 [4] was 28 mg/kg and the ED50 (tremorine induced tremor) was 11 mg/kg.
For `CNCCCCOc1c(C)cccc1Cc1ccccc1` [No. 1, 2-(4-methylaminobutoxy)-3-methyldiphenylmethane hydrochloride], the “Antireserpine activity, Relative Potency” value [5] was 0.56 and the LD50 [1] was 500 to 700 mg/kg.
For `Cc1cccc(Cc2ccccc2)c1OCCCCN(C)C` [No. 2, 2-(4-dimethylaminobutoxy)-3-methyldiphenylmethane], the “Antireserpine activity, Relative Potency” value [5] was 0.66 and the LD50 [1] was 500 to 700 mg/kg.
For `CNCCCCOc1ccccc1Cc1ccccc1O` [No. 8, 2-(4-methylaminobutoxy)-2'-hydroxydiphenylmethane], the ED50 [2] was 190 mg/kg, the ED50 [3] was 390 mg/kg and the ED50 [4] was 175 mg/kg. For the same compound, the ED50 (tremorine induced tremor) was > 200 mg/kg.
With `Cc1ccc(OCCCCN(C)C)c(Cc2ccccc2)c1` [compound 3] the “Antireserpine activity, Relative Potency” value [5] was 0.70 and the LD50 [1] was 500 to 700 mg/kg.
For `CNCCCCOc1ccccc1Cc1ccc(C)cc1` [compound 4], the “Antireserpine activity, Relative Potency” value [5] was 0.44.
In the case of `CNCCCCOc1ccccc1Cc1ccc(Cl)cc1` [compound 5], the “Antireserpine activity, Relative Potency” value [5] is reported as 0.44.
For `COc1ccc(Cc2ccccc2OCCCCN(CCO)CCO)cc1` [compound 6], the “Antireserpine activity, Relative Potency” value [5] was 0.44.
In the case of `CNCCCCOc1ccccc1Cc1ccccc1OC` [compound 7], the “Antireserpine activity, Relative Potency” value [5] is reported as 0.85 and the LD50 [1] is reported as 600 mg/kg.
In the case of `CNCCCCOc1ccccc1Cc1ccccc1O` [compound 8], the “Antireserpine activity, Relative Potency” value [5] is reported as 1.00 and the LD50 [1] is reported as 600 to 700 mg/kg.
For `CN(C)CCCCOc1ccccc1Cc1ccccc1O` [compound 9], the “Antireserpine activity, Relative Potency” value [5] was 0.77.
With `CCOc1ccccc1Oc1ccccc1OCCCCNC` [compound 10] the “Antireserpine activity, Relative Potency” value [5] was 0.90.
For `CNCCCCOc1ccccc1Oc1ccccc1C` [compound 11], the “Antireserpine activity, Relative Potency” value [5] was 0.65.
With `CNCCCOc1ccccc1Oc1ccccc1C` [compound 12] the “Antireserpine activity, Relative Potency” value [5] was 1.12.
For `Cc1ccccc1Oc1ccccc1OCCCN(C)C` [compound 13], the “Antireserpine activity, Relative Potency” value [5] was 0.95.
For `CCNCCCOc1ccccc1Oc1ccccc1C` [compound 14], the “Antireserpine activity, Relative Potency” value [5] was 0.46.
For `CCN(CC)CCCOc1ccccc1Oc1ccccc1C` [compound 15], the “Antireserpine activity, Relative Potency” value [5] was 0.44.
With `Cc1ccccc1Oc1ccccc1OCCCN1CCCC1` [compound 16] the “Antireserpine activity, Relative Potency” value [5] was 0.42.
